Laboratory results from US8013006B2.

test system: HCV replicon; test: microbe, parasite or virus in culture; type: cell-based; settings: Hepatitis C virus, 48 h, read-out: Replicon IC5Os

SMILES | IC50
CCn1c(-c2cccc(NC(=O)NC(C)C)c2)c(C#N)c2ccc(OC)cc21 [Compound 397] | < 500 nM
CCCCNC(=O)Nc1cccc(-c2c(C#N)c3ccc(OC)cc3n2CC)c1 [Compound 398] | < 500 nM
C=CCNC(=O)Nc1cccc(-c2c(C#N)c3ccc(OC)cc3n2CC)c1 [Compound 399] | < 500 nM
CCNC(=O)Nc1cccc(-c2c(C#N)c3ccc(OC)cc3n2CC)c1 [Compound 401] | < 500 nM
CCn1c(-c2cccc(NC(=O)Nc3ccc(C(C)C)cc3)c2)c(C#N)c2ccc(OC)cc21 [Compound 403] | 500 to 2000 nM
CCn1c(-c2cccc(NC(=O)Nc3ccccc3C)c2)c(C#N)c2ccc(OC)cc21 [Compound 405] | 500 to 2000 nM
CCn1c(-c2cccc(NC(=O)Nc3ccc(Oc4ccccc4)cc3)c2)c(C#N)c2ccc(OC)cc21 [Compound 406] | < 500 nM
CCn1c(-c2ccc(NC(=O)Nc3ccc(C(C)C)cc3)cc2)c(C#N)c2ccc(OC)cc21 [Compound 445] | 500 to 2000 nM
CCOC(=O)Nc1cccc(-c2c(C#N)c3ccc(OCCCCl)cc3n2CC)c1 [Compound 447] | < 500 nM
CCOC(=O)Nc1cccc(-c2c(C#N)c3ccc(OCCN4CCOCC4)cc3n2CC)c1 [Compound 492] | 500 to 2000 nM
CCOC(=O)Nc1cccc(-c2c(C#N)c3ccc(OCCCN4CCOCC4)cc3n2CC)c1 [Compound 493] | < 500 nM

same assay, conditions: Replicon IC50 values are determined by firefly luciferase signal; bicistronic replicon, 2 days; read-out: Replicon IC5Os

SMILES | IC50
CCn1c(-c2cccc(NC(=O)NCCCCl)c2)c(C#N)c2ccc(OC)cc21 [Compound 400] | 500 to 2000 nM
CCn1c(-c2cccc(NC(=O)NCCc3ccccc3)c2)c(C#N)c2ccc(OC)cc21 [Compound 402] | 500 to 2000 nM
CCn1c(-c2cccc(NC(=O)Nc3ccc(C)cc3)c2)c(C#N)c2ccc(OC)cc21 [Compound 404] | > 2000 nM
CCOC(=O)c1ccc(NC(=O)Nc2cccc(-c3c(C#N)c4ccc(OC)cc4n3CC)c2)cc1 [Compound 407] | 500 to 2000 nM
COc1ccc2c(C#N)c(-c3ccc(NS(C)(=O)=O)cc3)n(CC(C)C)c2c1 [Compound 409] | 500 to 2000 nM
CCOc1ccc2cc(-c3ccc(NS(C)(=O)=O)cc3)n(CC)c2c1 [Compound 410] | 500 to 2000 nM
CCOc1ccc2cc(-c3ccc(NS(=O)(=O)CC)cc3)n(CC)c2c1 [Compound 411] | 500 to 2000 nM
CCCn1c(-c2ccc(NS(C)(=O)=O)cc2)cc2ccc(OCC)cc21 [Compound 412] | > 2000 nM
CCOc1ccc2c(C#N)c(-c3ccc(NS(=O)(=O)CC)cc3)n(C)c2c1 [Compound 414] | 500 to 2000 nM
CCCn1c(-c2ccc(NS(C)(=O)=O)cc2)c(C#N)c2ccc(OCC)cc21 [Compound 417] | < 500 nM
CCOc1ccc2c(C#N)c(-c3ccc(NS(C)(=O)=O)cc3)n(C(C)C)c2c1 [Compound 419] | 500 to 2000 nM
CCn1c(-c2ccc(NC(=O)CCl)cc2)c(C#N)c2ccc(C(F)(F)F)cc21 [Compound 421] | > 2000 nM
CCn1c(-c2ccc(NC(=O)c3ccccc3)cc2)c(C#N)c2ccc(C(F)(F)F)cc21 [Compound 423] | > 2000 nM
CCn1c(-c2ccc(NC(=O)N3CCOCC3)cc2)c(C#N)c2ccc(C(F)(F)F)cc21 [Compound 424] | > 2000 nM
CCn1c(-c2ccc(NC(=O)C3CC3)cc2)c(C#N)c2ccc(C(F)(F)F)cc21 [Compound 425] | 500 to 2000 nM
CCn1c(-c2ccc3ccccc3c2)c(C#N)c2ccc(OC)cc21 [Compound 426] | 500 to 2000 nM
CCn1c(-c2ccc3c(ccn3C)c2)c(C#N)c2ccc(OC)cc21 [Compound 427] | 500 to 2000 nM
CCn1c(-c2cccc(N)c2)c(C#N)c2cc(Cl)ccc21 [Compound 431] | > 2000 nM
CCNC(=O)c1ccc(-c2c(C#N)c3ccccc3n2CC)cc1 [Compound 432] | > 2000 nM
CCn1c(-c2ccc(C(=O)NC3CC3)cc2)c(C#N)c2ccccc21 [Compound 433] | > 2000 nM
CCOC(=O)Nc1cccc(-c2c(C#N)c3cc(Cl)ccc3n2CC)c1 [Compound 434] | > 2000 nM
CCn1c(-c2ccc(S(N)(=O)=O)cc2)c(C#N)c2cc(F)ccc21 [Compound 437] | > 2000 nM
CCn1c(-c2ccc(S(=O)(=O)NC)cc2)c(C#N)c2cc(F)ccc21 [Compound 438] | > 2000 nM
CCn1c(-c2ccc(NS(C)(=O)=O)cc2)c(C#N)c2cc(F)ccc21 [Compound 439] | 500 to 2000 nM

SMILES | IC50
CCn1c(-c2ccc(NS(=O)(=O)CC)cc2)c(C#N)c2cc(F)ccc21 [Compound 440] | 500 to 2000 nM
CCOC(=O)Nc1cccc(-c2c(C#N)c3ccc(OCCCn4cncn4)cc3n2CC)c1 [Compound 441] | 500 to 2000 nM
CCn1c(-c2ccc(NC(=O)NCCCCl)cc2)c(C#N)c2ccc(OC)cc21 [Compound 443] | > 2000 nM
CCn1c(-c2ccc(NC(=O)NCCc3ccccc3)cc2)c(C#N)c2ccc(OC)cc21 [Compound 444] | > 2000 nM
CCn1c(-c2ccc(NC(=O)Nc3ccc(Oc4ccccc4)cc3)cc2)c(C#N)c2ccc(OC)cc21 [Compound 446] | > 2000 nM
CCn1c(-c2ccc(NS(=O)(=O)c3cn(C)cn3)cc2)c(C#N)c2ccc(OC)cc21 [Compound 448] | > 2000 nM
CCn1c(-c2ccc(NS(=O)(=O)c3ccc(N4CCOCC4)nc3)cc2)c(C#N)c2ccc(OC)cc21 [Compound 449] | > 2000 nM
CCOC(=O)Nc1ccc(-c2c(C#N)c3ccc(C(F)(F)F)cc3n2CC)cc1 [Compound 450] | 500 to 2000 nM
CCn1c(-c2ccc(NS(=O)(=O)c3cccs3)cc2)c(C#N)c2ccc(OC)cc21 [Compound 451] | > 2000 nM
CCn1c(-c2ccc(NS(=O)(=O)c3cccc4cccnc34)cc2)c(C#N)c2ccc(OC)cc21 [Compound 452] | > 2000 nM
CCCOC(=O)Nc1ccc(-c2c(C#N)c3ccc(C(F)(F)F)cc3n2CC)cc1 [Compound 453] | 500 to 2000 nM
CCn1c(-c2ccc(NC(=O)OCc3ccccc3)cc2)c(C#N)c2ccc(C(F)(F)F)cc21 [Compound 457] | 500 to 2000 nM
CCn1c(-c2ccc(N)cc2)c(C#N)c2cc(-c3cccc(OC)c3)ccc21 [Compound 459] | 500 to 2000 nM
CCn1c(-c2cccc(N)c2)c(C#N)c2cc(-c3cccc(OC)c3)ccc21 [Compound 460] | 500 to 2000 nM
CCOc1ccc2cc(-c3ccc(NS(=O)(=O)CC)cc3)n(CC(C)C)c2c1 [Compound 465] | > 2000 nM
CCOc1ccc2cc(-c3ccc(NS(C)(=O)=O)cc3)n(C3CCC3)c2c1 [Compound 466] | 500 to 2000 nM
CCOc1ccc2cc(-c3ccc(NS(=O)(=O)CC)cc3)n(C3CCC3)c2c1 [Compound 467] | 500 to 2000 nM
CCS(=O)(=O)Nc1ccc(-c2c(C#N)c3ccc(OC)cc3n2C(C)C)cc1 [Compound 468] | < 500 nM
CCn1c(-c2ccc(N)cc2)c(C#N)c2ccc(OCCCl)cc21 [Compound 476] | 500 to 2000 nM
CCn1c(-c2ccc(NS(C)(=O)=O)cc2)c(C#N)c2ccc(OCCN3CCCCC3)cc21 [Compound 479] | > 2000 nM
CCn1c(-c2ccc(NS(C)(=O)=O)cc2)c(C#N)c2ccc(OCCN3CCN(C)CC3)cc21 [Compound 481] | > 2000 nM
CCn1c(-c2ccc(NS(C)(=O)=O)cc2)c(C#N)c2ccc(OCCN(C)CCOC)cc21 [Compound 482] | 500 to 2000 nM
CCn1c(-c2cccc(N)c2)c(C#N)c2cc(OC)ccc21 [Compound 483] | > 2000 nM
CCn1c(-c2nc3ccccc3s2)c(C#N)c2ccc(OC)cc21 [Compound 484] | > 2000 nM

SMILES | IC50
CCOC(=O)Nc1cccc(-c2c(C#N)c3cc(-c4cccc(OC)c4)ccc3n2CC)c1 [Compound 485] | > 2000 nM
CCCOC(=O)Nc1cccc(-c2c(C#N)c3cc(-c4cccc(OC)c4)ccc3n2CC)c1 [Compound 486] | 500 to 2000 nM
CCn1c(-c2ccc(NS(C)(=O)=O)cc2)c(C#N)c2cc(-c3cccc(OC)c3)ccc21 [Compound 487] | 500 to 2000 nM
CCn1c(-c2ccc(NS(=O)(=O)CC)cc2)c(C#N)c2cc(-c3cccc(OC)c3)ccc21 [Compound 488] | < 500 nM
CCn1c(-c2cccc(NC(=O)OCC3CCCC3)c2)c(C#N)c2ccc(OC)cc21 [Compound 489] | 500 to 2000 nM
CCn1c(-c2cccc(NC(=O)OC3CCCC3)c2)c(C#N)c2ccc(OC)cc21 [Compound 490] | 500 to 2000 nM
CCOC(=O)Nc1cccc(-c2c(C#N)c3ccc(OCCn4cncn4)cc3n2CC)c1 [Compound 491] | > 2000 nM
CCOC(=O)Nc1cccc(-c2[nH]c3cc(OC)ccc3c2C#N)c1 [Compound 494] | > 2000 nM
CCn1c(-c2ccc(NS(C)(=O)=O)cc2)c(C#N)c2ccc(OCCn3ccnc3)cc21 [Compound 496] | 500 to 2000 nM
CCn1c(-c2ccc(NS(C)(=O)=O)cc2)c(C#N)c2ccc(OCCn3cncn3)cc21 [Compound 497] | > 2000 nM
CCn1c(-c2cccc(NC(=O)OCc3ccc(C(C)C)cc3)c2)c(C#N)c2ccc(OC)cc21 [Compound 500] | > 2000 nM
CCn1c(-c2cccc(NC(=O)OC3CCOC3)c2)c(C#N)c2ccc(OC)cc21 (stereo not shown) [Compound 502] | > 2000 nM
CCn1c(-c2cccc(NC(=O)O[C@@H]3CCOC3)c2)c(C#N)c2ccc(OC)cc21 [Compound 503] | > 2000 nM
CCOC(=O)Nc1cccc(-c2c(C#N)c3ccc(OCCCl)cc3n2CC)c1 [Compound 504] | > 2000 nM
CCn1c(-c2cccc(NS(=O)(=O)CC)c2)c(C#N)c2cc(OC)ccc21 [Compound 505] | > 2000 nM
CCOC(=O)Nc1cccc(-c2c(C#N)c3cc(OC)ccc3n2CC)c1 [Compound 506] | > 2000 nM
CCn1c(-c2cccc(NC(=O)OC(C)C)c2)c(C#N)c2cc(OC)ccc21 [Compound 507] | > 2000 nM
CCCOC(=O)Nc1cccc(-c2c(C#N)c3cc(OC)ccc3n2CC)c1 [Compound 508] | > 2000 nM
CCn1c(-c2cccc(NC(=O)OCCCCl)c2)c(C#N)c2cc(OC)ccc21 [Compound 509] | > 2000 nM
CCCNC(=O)Nc1cccc(-c2c(C#N)c3cc(OC)ccc3n2CC)c1 [Compound 511] | > 2000 nM
CCOC(=O)NC(=O)Nc1cccc(-c2c(C#N)c3cc(OC)ccc3n2CC)c1 [Compound 512] | > 2000 nM
CCn1c(-c2cccc(NC(=O)Nc3cccc(C(F)(F)F)c3)c2)c(C#N)c2cc(OC)ccc21 [Compound 513] | > 2000 nM
CCn1c(NC)c(C#N)c2ccc(C(F)(F)F)cc21 [Compound 514] | > 2000 nM
